Broadly, the IC50 is the concentration at which inhibition is half-maximal.

The source of these data is patent US10167276B2, “Compounds and methods for inhibiting JAK” (Dizal (Jiangsu) Pharmaceutical Co., Ltd., priority 2015, dated 2019).

Each structure is given as a SMILES string.

One assay deals with JAK1 (Homo sapiens (Human), UniProt P23458). As to the kind of experiment: Enzyme inhibition studies, recombinant JAK1 (Caliper peptide phosphorylation). It counts as biochemical. The following applies: recombinant JAK1 (amino acids 866-1154); assayed at ATP Km (55 μM) and 5 mM ATP, table does not say which. Here is the method: (§1) Enzyme inhibition studies were performed using recombinant JAK1 (amino acids 866-1154, Life Technologies, #PV4774, Carlsbad, Calif.), JAK2 (amino acids 831-1132), or JAK3 (amino acids 781-1124) under buffer conditions of 50 mM HEPES pH 7.3, 1 mM DTT, 0.01% Tween® 20, 50 μg/mL BSA, and 10 mM MgCl2. JAK enzyme was expressed as an N-terminal GST fusion in insect cells and purified by glutathione-affinity and size-exclusion chromatographies. […] Phosphorylated and unphosphorylated peptides were separated and quantified by a Caliper LC3000 system (Caliper Life Sciences, MA) for calculating percent inhibition.

Another assay addresses JAK2 (Homo sapiens (Human), UniProt O60674). The assay is described as follows: Enzyme inhibition studies, recombinant JAK2 (Caliper peptide phosphorylation). Type of assay: biochemical. The following applies: recombinant JAK2 (amino acids 831-1132); assayed at ATP Km (15 μM) and 5 mM ATP, table does not say which. The protocol: as §1
The target in the next assay is JAK3 (Homo sapiens (Human), UniProt P52333). The assay is described as follows: Enzyme inhibition studies, recombinant JAK3 (Caliper peptide phosphorylation). It counts as biochemical. Particulars: recombinant JAK3 (amino acids 781-1124); assayed at ATP Km (3 μM) and 5 mM ATP, table does not say which. Here is the method: as §1
Assay [1] has as its system STAT3 phosphorylation in NCI-H1975 cells. As to the kind of experiment: Cellular pSTAT3 assay in NCI-H1975 cells. It counts as cell-based. Particulars: Homo sapiens, 2 hours with compound. The protocol: NCI-H1975 cells were plated onto Costar #3701 96 or 384 well tissue-culture treated plates at 5,000 cells/well in 30 uL medium (RPMI, 10% FBS, supplemented with L-glutamine) and incubated overnight at 37° C. in 5% CO2. Phospho STAT3 signal was quantitated utilizing Cell Signaling Technology #7146B Pathscan […] STAT3 antibody pair kit, following manufacturer's instructions.
Cells were dosed with compound and incubated at 37° C. in 5% CO2 for 2 hours, after which medium and compound were aspirated and cells lysed with 35 uL cold 1×Cell Signaling Lysis buffer and chilled at 4° C. for 1-2 hours. Lysate was incubated on STAT3 capture plates at 4° C. overnight, washed 3× with Tris-Buffered Saline with 0.05% Tween® 20 (TBST), then […] STAT3 detection antibody was applied for 2 hours. Following washing with TBST (3×), HRP-secondary antibody was applied for 2 hours. After additional washing, signal was detected using TMB and Stop solution and read at 450 nm using Tecan Infinite M100.

JAK3, sequence (P52333 781-1124): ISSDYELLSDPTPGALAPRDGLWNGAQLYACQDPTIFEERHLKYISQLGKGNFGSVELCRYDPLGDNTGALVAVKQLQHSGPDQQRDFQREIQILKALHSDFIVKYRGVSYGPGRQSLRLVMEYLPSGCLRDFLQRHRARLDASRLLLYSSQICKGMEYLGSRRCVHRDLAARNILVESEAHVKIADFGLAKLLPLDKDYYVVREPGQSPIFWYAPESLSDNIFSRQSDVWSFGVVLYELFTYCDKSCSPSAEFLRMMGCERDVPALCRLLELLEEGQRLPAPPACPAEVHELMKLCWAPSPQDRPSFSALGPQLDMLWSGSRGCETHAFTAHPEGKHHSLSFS
JAK1, sequence (P23458 866-1154): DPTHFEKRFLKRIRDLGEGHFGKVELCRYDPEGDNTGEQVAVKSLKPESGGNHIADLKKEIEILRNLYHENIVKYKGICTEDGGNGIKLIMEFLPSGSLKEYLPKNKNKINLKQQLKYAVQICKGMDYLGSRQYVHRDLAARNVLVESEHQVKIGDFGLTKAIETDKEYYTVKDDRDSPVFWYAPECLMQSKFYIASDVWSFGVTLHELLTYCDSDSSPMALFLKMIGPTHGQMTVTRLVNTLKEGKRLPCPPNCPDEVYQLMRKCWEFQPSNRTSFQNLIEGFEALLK
JAK2, sequence (O60674 831-1132): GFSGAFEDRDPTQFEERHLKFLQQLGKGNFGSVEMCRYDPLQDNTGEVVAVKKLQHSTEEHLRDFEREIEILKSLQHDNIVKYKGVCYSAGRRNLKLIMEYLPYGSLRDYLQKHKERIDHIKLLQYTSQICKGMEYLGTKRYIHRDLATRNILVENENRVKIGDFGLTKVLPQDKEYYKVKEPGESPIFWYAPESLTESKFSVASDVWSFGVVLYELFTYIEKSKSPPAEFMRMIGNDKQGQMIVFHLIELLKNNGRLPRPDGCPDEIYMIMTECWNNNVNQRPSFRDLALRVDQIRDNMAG

`CCOc1nn(C)cc1Nc1ncc(C)c(-c2c[nH]c3c(NC(=O)[C@H](COC)N4CCN(C)CC4)cccc23)n1` [Example 65, (2S)-N-(3-{2-[(3-ethoxy-1-methyl-1H-pyrazol-4-yl)amino]-5-methylpyrimidin-4-yl}-1H-indol-7-yl)-3-methoxy-2-(4-methylpiperazin-1-yl)propanamide]: the IC50 at JAK1 was 2530 nM; on JAK2 it was greater than 30000 nM; at JAK3, greater than 30000 nM; in assay [1] it was 1030 nM.
For the compound `COc1nn(C)cc1Nc1ncc(C)c(-c2c[nH]c3c(NC(=O)[C@@H](C)N4CCN(C)[C@H](C)C4)cccc23)n1` [Example 18, (2R)-2-[(3R)-3,4-dimethylpiperazin-1-yl]-N-(3-{2-[(3-methoxy-1-methyl-1H-pyrazol-4-yl)amino]-5-methylpyrimidin-4-yl}-1H-indol-7-yl)propanamide], in assay [1], the half-maximal inhibitory concentration (IC50) turned out to be 175 nM.
The same measure, in the same setting: as for `CCc1nn(C)cc1Nc1ncc(C)c(-c2c[nH]c3c(NC(=O)[C@@H](C)N4CCN(C)CC4)cccc23)n1` [Example 55, (2R)-N-(3-{2-[(3-ethyl-1-methyl-1H-pyrazol-4-yl)amino]-5-methylpyrimidin-4-yl}-1H-indol-7-yl)-2-(4-methylpiperazin-1-yl)propanamide], the figure is 116 nM; as for `COc1nn(C)cc1Nc1nccc(-c2c[nH]c3c(NC(=O)[C@@H](C)N4CCN(C)C[C@@H]4C)cccc23)n1` [Example 1, (2R)-2-[(2S)-2,4-dimethylpiperazin-1-yl]-N-(3-{2-[(3-methoxy-1-methyl-1H-pyrazol-4-yl)amino]pyrimidin-4-yl}-1H-indol-7-yl)propanamide], 643 nM.
The same measure, in the same setting: as for `CCOc1nn(C)cc1Nc1ncc(F)c(-c2c[nH]c3c(NC(=O)[C@@H](C)N4CCN(CCOC)CC4)cccc23)n1` [Example 9, (2R)-N-(3-{2-[(3-ethoxy-1-methyl-1H-pyrazol-4-yl)amino]-5-fluoropyrimidin-4-yl}-1H-indol-7-yl)-2-[4-(2-methoxyethyl)piperazin-1-yl]propanamide], the figure is 594 nM.
On to `CC[C@@H](C(=O)Nc1cccc2c(-c3ccnc(Nc4cn(C)nc4OC)n3)c[nH]c12)N1CCN(C)CC1` [Example 48, (2S)-N-(3-{2-[(3-Methoxy-1-methyl-1H-pyrazol-4-yl)amino]pyrimidin-4-yl}-1H-indol-7-yl)-2-(4-methylpiperazin-1-yl)butanamide], for which the IC50 in assay [1] is 863 nM.
Take `COc1nn(C)cc1Nc1nccc(-c2c[nH]c3c(NC(=O)[C@@H](C)N4CCN(C)[C@@H](C)C4)cccc23)n1` [Example 26, (2R)-2-[(3S)-3,4-dimethylpiperazin-1-yl]-N-(3-{2-[(3-methoxy-1-methyl-1H-pyrazol-4-yl)amino]pyrimidin-4-yl}-1H-indol-7-yl)propanamide]: in assay [1], the half-inhibitory concentration (IC50) stood at 256 nM.
Same read-out and setting: next, `COC[C@H](C(=O)Nc1cccc2c(-c3ccnc(Nc4cn(C)nc4OC)n3)c[nH]c12)N1CCN(C)CC1` [Example 60, (2R)-3-Methoxy-N-(3-{2-[(3-methoxy-1-methyl-1H-pyrazol-4-yl)amino]pyrimidin-4-yl}-1H-indol-7-yl)-2-(4-methylpiperazin-1-yl)propanamide]: 97.3 nM.
As for `CC[C@@H](C(=O)Nc1cccc2c(-c3nc(Nc4cn(C)nc4OC)ncc3C)c[nH]c12)N1CCN(C)CC1` [Example 43, (2S)-N-(3-{2-[(3-Methoxy-1-methyl-1H-pyrazol-4-yl)amino]-5-methylpyrimidin-4-yl}-1H-indol-7-yl)-2-(4-methylpiperazin-1-yl)butanamide], in assay [1], the 50% inhibitory concentration (IC50) was 176 nM.
On the same count and under the same terms, as for `COc1nn(C)cc1Nc1ncc(F)c(-c2c[nH]c3c(NC(=O)[C@@H](C)N4CCN(C)C[C@@H]4C)cccc23)n1` [Example 7a, (2R)-2-[(3S)-2,4-dimethylpiperazin-1-yl]-N-(3-{5-fluoro-2-[(3-methoxy-1-methyl-1H-pyrazol-4-yl)amino]pyrimidin-4-yl}-1H-indol-7-yl)propanamide], the figure is 509 nM.
Still for that read-out and setting: next, `COc1nn(C)cc1Nc1ncc(C)c(-c2c[nH]c3c(NC(=O)[C@@H](C)N4CCN(C)C[C@@H]4C)cccc23)n1` [Example 19, (2R)-2-[(2S)-2,4-dimethylpiperazin-1-yl]-N-(3-{2-[(3-methoxy-1-methyl-1H-pyrazol-4-yl)amino]-5-methylpyrimidin-4-yl}-1H-indol-7-yl)propanamide]: 470 nM; `COc1nn(C)cc1Nc1ncc(C)c(-c2c[nH]c3c(NC(=O)[C@@H](C)N4CCN(C)[C@@H](C)C4)cccc23)n1` [Example 14, (2R)-2-[(3S)-3,4-dimethylpiperazin-1-yl]-N-(3-{2-[(3-methoxy-1-methyl-1H-pyrazol-4-yl)amino]-5-methylpyrimidin-4-yl}-1H-indol-7-yl)propanamide]: 70.3 nM.
Regarding `CCOc1nn(C)cc1Nc1ncc(C)c(-c2c[nH]c3c(NC(=O)[C@@H](C)N4CCN(C)[C@@H](C)C4)cccc23)n1` [Example 31a, (2R)-2-[(3S)-3,4-dimethylpiperazin-1-yl]-N-(3-{2-[(3-ethoxy-1-methyl-1H-pyrazol-4-yl)amino]-5-methylpyrimidin-4-yl}-1H-indol-7-yl)propanamide], in assay [1], the IC50 stood at 153 nM.
The same measure, in the same setting: as for `COc1nn(C)cc1Nc1nccc(-c2c[nH]c3c(NC(=O)[C@@H](C)N4CCN(C)[C@H](C)C4)cccc23)n1` [Example 30, (2R)-2-[(3R)-3,4-dimethylpiperazin-1-yl]-N-(3-{2-[(3-methoxy-1-methyl-1H-pyrazol-4-yl)amino]pyrimidin-4-yl}-1H-indol-7-yl)propanamide], the figure is 359 nM; as for `COCCN1CCN([C@H](C)C(=O)Nc2cccc3c(-c4nc(Nc5cn(C)nc5OC)ncc4F)c[nH]c23)CC1` [Example 3, (2R)-N-(3-{5-fluoro-[(3-methoxy-1-methyl-1H-pyrazol-4-yl)amino]pyrimidin-4-yl}-1H-indol-7-yl)-2-[4-(2-methoxyethyl)piperazin-1-yl]propanamide], 302 nM; as for `CCN1CCN([C@H](C)C(=O)Nc2cccc3c(-c4nc(Nc5cn(C)nc5OC)ncc4C)c[nH]c23)CC1` [Example 16, (2R)-2-(4-ethylpiperazin-1-yl)-N-(3-{2-[(3-methoxy-1-methyl-1H-pyrazol-4-yl)amino]-5-methylpyrimidin-4-yl}-1H-indol-7-yl)propanamide], 105 nM.
In the case of `Cc1cnc(Nc2cn(C)nc2C)nc1-c1c[nH]c2c(NC(=O)[C@@H](C)N3CCN(C)CC3)cccc12` [Example 41, (2R)-N-(3-{2-[(1,3-dimethyl-1H-pyrazol-4-yl)amino]-5-methylpyrimidin-4-yl}-1H-indol-7-yl)-2-(4-methylpiperazin-1-yl)propanamide], the IC50 in assay [1] was 92.3 nM.
Turning to `CC[C@H](C(=O)Nc1cccc2c(-c3nc(Nc4cn(C)nc4OC)ncc3C)c[nH]c12)N1CCN(C)CC1` [Example 44, (2R)-N-(3-{2-[(3-Methoxy-1-methyl-1H-pyrazol-4-yl)amino]-5-methylpyrimidin-4-yl}-1H-indol-7-yl)-2-(4-methylpiperazin-1-yl)butanamide], the half-maximal inhibitory concentration (IC50) in assay [1] is 57.7 nM.
Regarding `COc1nn(C)cc1Nc1ncc(C)c(-c2c[nH]c3c(NC(=O)[C@@H](C)N4CCN(CCO)CC4)cccc23)n1` [Example 15, (2R)-2-[4-(2-hydroxyethyl)piperazin-1-yl]-N-(3-{2-[(3-methoxy-1-methyl-1H-pyrazol-4-yl)amino]-5-methylpyrimidin-4-yl}-1H-indol-7-yl)propanamide], in assay [1], the IC50 stood at 131 nM.
On to `COc1nn(C)cc1Nc1ncc(F)c(-c2c[nH]c3c(NC(=O)[C@@H](C)N4CCN(C)C[C@H]4C)cccc23)n1` [Example 6, (2R)-2-[(2R)-2,4-dimethylpiperazin-1-yl]-N-(3-{5-fluoro-2-[(3-methoxy-1-methyl-1H-pyrazol-4-yl)amino]pyrimidin-4-yl}-1H-indol-7-yl)propanamide], for which, in assay [1], the IC50 is 111 nM.
Still for that read-out and setting: as for `COc1nn(C)cc1Nc1ncc(C)c(-c2c[nH]c3c(NC(=O)[C@H](C)N4CCN(C)CC4)cccc23)n1` [Example 33, (2S)-N-{3-[2-[(3-methoxy-1-methyl-1H-pyrazol-4-yl)amino]-5-methylpyrimidin-4-yl}-1H-indol-7-yl)-2-(4-methylpiperaizn-1-yl)propanamide], the figure is 308 nM; as for `CCOc1nn(C)cc1Nc1ncc(C)c(-c2c[nH]c3c(NC(=O)[C@@H](C)N4CCN(C)[C@H](C)C4)cccc23)n1` [Example 24, (2R)-2-[(3R)-3,4-dimethylpiperazin-1-yl]-N-(3-{2-[(3-ethoxy-1-methyl-1H-pyrazol-4-yl)amino]-5-methylpyrimidin-4-yl}-1H-indol-7-yl)propanamide], 370 nM.
